From PubChem BioAssay (NCI)
Where “and” joins values, the source holds several entries; their conditions need not be identical. Equal entries are not always repeated.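 Exposure lasted 48 hours, with cells grown in 96-well plates and compounds tested at five concentrations. GI50 marks 50% less growth. TGI is the concentration that stops growth completely.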

What was measured:
Assay in all cases: NCI tumour cell line growth inhibition, 48 h
ACHN renal = test system: ACHN renal
HCT-116 colon = test system: HCT-116 colon
HL-60(TB) leukemia = test system: HL-60(TB) leukemia
HS 578T breast = test system: HS 578T breast
HT29 colon = test system: HT29 colon
MALME-3M melanoma = test system: MALME-3M melanoma
MDA-MB-231 breast = test system: MDA-MB-231 breast
U251 CNS = test system: U251 CNS
UACC-257 melanoma = test system: UACC-257 melanoma
SK-OV-3 ovarian = test system: SK-OV-3 ovarian

Which results are given for `COc1cc(OC)c(NC(=O)c2cc3ccccc3cc2O)cc1Cl`?
GI50 (ACHN renal): 2.51 µM; TGI (ACHN renal): 7.19 µM; GI50 (HCT-116 colon): 2.91 µM; TGI (HCT-116 colon): 10.1 µM; GI50 (HL-60(TB) leukemia): 1.91 µM; TGI (HL-60(TB) leukemia): 7.99 µM; GI50 (HS 578T breast): 2.72 µM; TGI (HS 578T breast): 8.95 µM; GI50 (HT29 colon): 4.88 µM; TGI (HT29 colon): 30.1 µM; GI50 (MALME-3M melanoma): 1.89 µM; TGI (MALME-3M melanoma): 6.04 µM; GI50 (MDA-MB-231 breast): 1.78 µM; TGI (MDA-MB-231 breast): 4.78 µM; GI50 (U251 CNS): 3.22 µM; TGI (U251 CNS): 10.5 µM

How did the GI50 (ACHN renal) turn out when `C=C(CN1CCN(c2cccc(C(F)(F)F)n2)CC1)c1ccc(C(=S)Nc2ccccc2N)cc1` was run?
The GI50 was 3.88 µM.

What about the TGI (ACHN renal) of the same compound?
Its TGI is > 100 µM.

And the GI50 (HCT-116 colon)?
The GI50 was 2.76 µM.

What about the TGI (HCT-116 colon) of the same compound?
The TGI was 19.8 µM.

And the GI50 (HL-60(TB) leukemia)?
The GI50 was 2.29 µM.

And the TGI (HL-60(TB) leukemia)?
The TGI was 5.66 µM.

And the GI50 (HS 578T breast)?
The GI50 was 3.52 µM.

What about the TGI (HS 578T breast) of the same compound?
The TGI was > 100 µM.

What about the GI50 (HT29 colon) of the same compound?
The GI50 was 3.05 µM.

What about the TGI (HT29 colon) of the same compound?
The TGI was 18.2 µM.

What about the GI50 (MDA-MB-231 breast) of the same compound?
The GI50 was 2.52 µM.

What about the TGI (MDA-MB-231 breast) of the same compound?
Its TGI is 8.9 µM.

What about the GI50 (U251 CNS) of the same compound?
The GI50 was 3.77 µM.

And the TGI (U251 CNS)?
The TGI was 38.5 µM.

And the GI50 (UACC-257 melanoma)?
Its GI50 is 3.33 µM.

What about the TGI (UACC-257 melanoma) of the same compound?
The TGI was 18.8 µM.

What does the source list for `OCC1OC(n2cnc3c(Cl)nc(Cl)cc32)C(O)C1O` (stereo not drawn)?
GI50 (ACHN renal): > 100 µM; TGI (ACHN renal): > 100 µM; GI50 (HCT-116 colon): > 100 µM; TGI (HCT-116 colon): > 100 µM; GI50 (HL-60(TB) leukemia): > 100 µM; TGI (HL-60(TB) leukemia): > 100 µM; GI50 (HS 578T breast): 19.7 µM; TGI (HS 578T breast): > 100 µM; GI50 (HT29 colon): > 100 µM; TGI (HT29 colon): > 100 µM; GI50 (MALME-3M melanoma): > 100 µM; TGI (MALME-3M melanoma): > 100 µM; GI50 (SK-OV-3 ovarian): > 100 µM; TGI (SK-OV-3 ovarian): > 100 µM

How did the TGI (ACHN renal) turn out when `CSCCOC(=O)C(=[N+]=[N-])c1ccc([N+](=O)[O-])cc1` was run?
The TGI was > 100 µM.

What about the TGI (HCT-116 colon) of the same compound?
Its TGI is > 100 µM.

And the TGI (HL-60(TB) leukemia)?
The TGI was > 100 µM.

And the TGI (HT29 colon)?
The TGI was > 100 µM.

What about the TGI (MALME-3M melanoma) of the same compound?
The TGI was > 100 µM.

And the TGI (SK-OV-3 ovarian)?
Its TGI is > 100 µM.

And the TGI (U251 CNS)?
Its TGI is > 100 µM.

What about the TGI (UACC-257 melanoma) of the same compound?
The TGI was > 100 µM.

Which TGI (ACHN renal) does the source give for `CC1OC(OC2C(CO)OC(O[C@H]3CC[C@@]4(C)C(=CC[C@H]5[C@@H]6C[C@@H]7O[C@]8(CC[C@@H](C)CN8)[C@@H](C)[C@@H]7[C@@]6(C)CC[C@@H]54)C3)C(O)C2O)C(O)C(O)C1O` (stereo partly drawn) here?
Its TGI is > 100 µM.

And the TGI (HCT-116 colon)?
Its TGI is > 100 µM.

And the TGI (HL-60(TB) leukemia)?
The TGI was > 100 µM.

And the TGI (HT29 colon)?
Its TGI is > 100 µM.

What about the TGI (MALME-3M melanoma) of the same compound?
Its TGI is > 100 µM.

What about the TGI (SK-OV-3 ovarian) of the same compound?
Its TGI is > 100 µM.

What about the TGI (U251 CNS) of the same compound?
The TGI was > 100 µM.

And the TGI (UACC-257 melanoma)?
The TGI was > 100 µM.

What does the source list for `CCOc1ccccc1NC(=O)CCc1n[nH]c(=S)o1`?
TGI (ACHN renal): > 100 µM; TGI (HCT-116 colon): > 100 µM; TGI (HL-60(TB) leukemia): > 100 µM; TGI (HT29 colon): > 100 µM; TGI (MALME-3M melanoma): > 100 µM; TGI (SK-OV-3 ovarian): > 100 µM; TGI (U251 CNS): > 100 µM; TGI (UACC-257 melanoma): > 100 µM

For `CNC(=O)c1cccc2c(Nc3ccc(NS(C)(=O)=O)cc3OC)c3cccc(C)c3nc12`, which TGI (ACHN renal) is on record?
The TGI was 0.322 µM.

What about the TGI (HCT-116 colon) of the same compound?
The TGI was 2.86 µM.

What about the TGI (HL-60(TB) leukemia) of the same compound?
Its TGI is 0.0552 µM.

What about the TGI (HT29 colon) of the same compound?
The TGI was 3.69 µM.

What about the TGI (MALME-3M melanoma) of the same compound?
The TGI was 4.55 µM.

What about the TGI (SK-OV-3 ovarian) of the same compound?
Its TGI is 0.907 µM.

And the TGI (U251 CNS)?
The TGI was 0.719 µM.

And the TGI (UACC-257 melanoma)?
Its TGI is 10.6 µM.

`C=C(C)[C@@H]1CC[C@]2(CO)CC[C@]3(C)[C@H](CC[C@@H]4[C@@]5(C)CCC(NCCc6ccc(O)cc6)C(C)(C)[C@@H]5CC[C@]43C)[C@@H]12` (stereo partly drawn) was tested. Which GI50 (ACHN renal) did it give?
The GI50 was 1.62 µM.

And the TGI (ACHN renal)?
Its TGI is 2.97 µM.

And the GI50 (HCT-116 colon)?
Its GI50 is 1.39 µM.

What about the TGI (HCT-116 colon) of the same compound?
The TGI was 2.84 µM.

And the GI50 (HL-60(TB) leukemia)?
Its GI50 is 1.49 µM.

What about the TGI (HL-60(TB) leukemia) of the same compound?
Its TGI is 3.67 µM.

What about the GI50 (HT29 colon) of the same compound?
The GI50 was 1.09 µM.

What about the TGI (HT29 colon) of the same compound?
The TGI was 2.49 µM.

And the GI50 (MDA-MB-231 breast)?
The GI50 was 1.64 µM.

And the TGI (MDA-MB-231 breast)?
Its TGI is 3.09 µM.

And the GI50 (SK-OV-3 ovarian)?
Its GI50 is 1.77 µM.

And the TGI (SK-OV-3 ovarian)?
The TGI was 3.21 µM.

And the GI50 (U251 CNS)?
The GI50 was 1.56 µM.

And the TGI (U251 CNS)?
Its TGI is 2.98 µM.

And the GI50 (UACC-257 melanoma)?
The GI50 was 1.73 µM.

And the TGI (UACC-257 melanoma)?
Its TGI is 3.37 µM.

`C=C1C(=O)O[C@@H]2C1C[C@@H](O)C(=C)CC/C=C(\C)CCC[C@H](C)[C@H]2OC(C)=O` (stereo partly drawn) was tested. Which GI50 (ACHN renal) did it give?
Its GI50 is 1.69 µM.

And the TGI (ACHN renal)?
The TGI was 3.85 µM.

What about the GI50 (HCT-116 colon) of the same compound?
The GI50 was 1.4 µM.

And the TGI (HCT-116 colon)?
The TGI was 3.06 µM.

And the GI50 (HS 578T breast)?
The GI50 was 10.3 µM.

What about the TGI (HS 578T breast) of the same compound?
The TGI was 27.7 µM.

What about the GI50 (HT29 colon) of the same compound?
The GI50 was 4.17 µM.

What about the TGI (HT29 colon) of the same compound?
The TGI was > 100 µM.

And the GI50 (MDA-MB-231 breast)?
The GI50 was 4.07 µM.

And the TGI (MDA-MB-231 breast)?
Its TGI is 18.6 µM.

What about the GI50 (SK-OV-3 ovarian) of the same compound?
Its GI50 is 14.8 µM.

And the TGI (SK-OV-3 ovarian)?
The TGI was 32.5 µM.

What about the GI50 (U251 CNS) of the same compound?
The GI50 was 5.83 µM.

And the TGI (U251 CNS)?
The TGI was 23.3 µM.

And the GI50 (UACC-257 melanoma)?
Its GI50 is 16 µM.

And the TGI (UACC-257 melanoma)?
Its TGI is 35.9 µM.

What does the source list for `C[C@H](CCCNCCCNCCCN)[C@H]1CC[C@H]2[C@@H]3[C@H](OCCCN)C[C@H]4C[C@H](OCCCN)CC[C@]4(C)[C@H]3C[C@H](OCCCN)[C@]12C`?
GI50 (ACHN renal): 1.41 µM; TGI (ACHN renal): 27.7 µM; GI50 (HCT-116 colon): 0.482 µM; TGI (HCT-116 colon): 10.2 µM; GI50 (HS 578T breast): 0.918 µM; TGI (HS 578T breast): 12.5 µM; GI50 (HT29 colon): 0.821 µM; TGI (HT29 colon): 13.8 µM; GI50 (MALME-3M melanoma): 4.27 µM; TGI (MALME-3M melanoma): 26 µM; GI50 (MDA-MB-231 breast): 0.652 µM; TGI (MDA-MB-231 breast): 18.8 µM; GI50 (SK-OV-3 ovarian): 35.7 µM; TGI (SK-OV-3 ovarian): > 100 µM; GI50 (U251 CNS): 2.65 µM; TGI (U251 CNS): 19.7 µM; GI50 (UACC-257 melanoma): 9.63 µM; TGI (UACC-257 melanoma): 59.5 µM

For `CC1=C[P+](Cc2ccccc2)(c2ccccc2)CC1` (stereo not drawn), which TGI (ACHN renal) is on record?
The TGI was > 100 µM.

And the TGI (HCT-116 colon)?
The TGI was > 100 µM.

What about the TGI (HL-60(TB) leukemia) of the same compound?
Its TGI is > 100 µM.

And the TGI (HT29 colon)?
Its TGI is > 100 µM.

And the GI50 (MALME-3M melanoma)?
Its GI50 is 19.9 µM and 76.5 µM and 31.2 µM.

And the TGI (MALME-3M melanoma)?
The TGI was > 100 µM.

What about the TGI (SK-OV-3 ovarian) of the same compound?
The TGI was > 100 µM.

And the GI50 (U251 CNS)?
The GI50 was 23.1 µM and 58.1 µM and 9.71 µM.

What about the TGI (U251 CNS) of the same compound?
The TGI was > 100 µM.

What about the TGI (UACC-257 melanoma) of the same compound?
Its TGI is > 100 µM and 78 µM.

What does the source list for `O=C(NCC(O)CNC(=O)C(F)(F)F)C(F)(F)F`?
TGI (HCT-116 colon): > 100 µM; TGI (HL-60(TB) leukemia): > 100 µM; TGI (HT29 colon): > 100 µM; TGI (MALME-3M melanoma): > 100 µM; TGI (SK-OV-3 ovarian): > 100 µM; TGI (U251 CNS): > 100 µM; TGI (UACC-257 melanoma): > 100 µM

For `CC(C)(C)OC(=O)NC(CO)c1cccc(OCc2ccccc2)c1` (stereo not drawn), which TGI (ACHN renal) is on record?
The TGI was > 100 µM.

And the TGI (HCT-116 colon)?
The TGI was > 100 µM.

What about the TGI (HL-60(TB) leukemia) of the same compound?
Its TGI is 43.8 µM.

And the TGI (HT29 colon)?
Its TGI is > 100 µM.

What about the TGI (MALME-3M melanoma) of the same compound?
Its TGI is > 100 µM.

And the TGI (SK-OV-3 ovarian)?
Its TGI is > 100 µM.

What about the TGI (U251 CNS) of the same compound?
The TGI was > 100 µM.

And the TGI (UACC-257 melanoma)?
Its TGI is 99.4 µM.
